Laboratory results: US20240166702A1, “COMPOSITIONS AND METHODS FOR TREATING BREAST CANCER” (Arizona Board of Regents on Behalf of The University of …, priority 2021, published 2024)

Assays:
[1] = tested on: BT20 cells; assay type: cell-based, human
Protocol: (§1) B. MDA-MD-468 cells were transduced with an IPTG inducible shEGFR targeted against the 3′ UTR of EGFR. These cells were incubated with IPTG for the indicated number of days and lysates were generated to confirm knock down of EGFR. C. In tandem with B., cells were plated and incubated +/−IPTG for 2 days prior to drug treatment. […] After 5 days of IPTG and 3 days of peptide treatment viability was measured using an MTT assay.
To investigate rt-EGFR, the role of the Sorting Nexins to regulate EGFR trafficking to the lysosome for degradation was investigated. To determine if SNX1 domains could be therapeutically mimicked, three SNX1-based peptides were synthesized, each of which was generated in tandem with a Cell Penetrating Peptide domain (PTD-4) to allow for intracellular penetration^19 (SNX1.1, 1.2 and 1.3, FIG. 2A). The ability of each peptide to reduce cell survival in the triple negative breast cancer cell line BT20 was evaluated.
(§2) EGFR activity is known to promote the activity of other RTKs, including those in the EGFR family (HER2, HER3 and HER4) and the c-Met receptor (Puri and Salgia 2008; Linklater et al. 2016). Therefore, the ability of SNX1.3 to inhibit 2D migration was next evaluated, both in response to EGF as well as other migration-inducing ligands. […] Cells were plated on plastic and allowed to migrate into an artificial wound over 12 hours. […] To determine if this inhibitory effect was restricted to EGF-induced migration, the ability of SNX1.3 to impact neuregulin (NRG1) was also tested and hepatic growth factor (HGF)-induced migration. NRG is the ligand for HER3 and HER4, and HGF the ligand for the c-Met receptor, both of which are receptor tyrosine kinases. In addition, soluble hyaluronic acid (HA)-induced migration, the ligand for CD44, was also tested [a non-kinase membrane receptor that induces migration (Louderbough, Lopez, and Schroeder 2010)]. […] Note that all receptors undergo endocytosis, with the RTKs primarily undergoing clathrin-dependent endocytosis, while CD44 endocytosis is clathrin-independent (Dutta and Donaldson 2015).

[2] = tested on: MDA-MB-468 cells; assay type: cell-based, human; details: MDA-MB-468, 3 days, MTT assay
Protocol: A. Peptide sequence alignment of modified and stabilized peptides (−) indicates conserved residues, (/) indicates a deleted residue. Modified residues used for staples are (S)-2-(((9H-flouren-9-yl) methoxy) caronylamino)-2-methyl-hept-6-enoic acid (5) and (R)-2-(((9H-flouren-9-yl) methoxy) caronylamino)-2-methyl-dec-9-enoic acid (8). PTD4=Protein Transduction Domain. Ac=acetylation of 5′ end and NH2=amidation of 3′ end. B. MDA-MB-468 cells were treated with 10 μM of the indicated peptide for 3 days. Cell viability was measured using an MTT assay. Vehicle control represents 100%. C. A predicted peptide structure of SNX1.3 was generated using SWISSMODEL with negative (blue) and positive (red) residues highlighted.
as §1
Predicted peptide structure including negatively (blue) and positively (red) charged residues was used to guide the modifications (FIG. 2C).

[3] = tested on: MCF10A cells; assay type: cell-based
[4] = tested on: WAP-TGFα tumors; test: NanoString analysis of WAP-TGFα tumors (PanCancer IO 360 Panel); assay type: in vivo, mouse; details: WAP-TGFα tumors, found by NanoString
Protocol: (§3) A. Tumors (n=6 each treatment) from WAP-TGF mice as described in FIG. 1 were embedded and analyzed by NanoString. […] C. Tumors were dissected, lysed, and analyzed for apoptosis by probing for cleaved PARP and PDL1 expression.
C. WAP-TGFα tumors treated with either SNX1.3 or cPTD4 were analyzed for NK cells using an anti-NKp46 antibody. Inset is 20×.
(§4) Due to the increased leukocyte infiltration identified by histology of cSNX1.3-treated WAP-TGFα mice, NanoString analysis was performed using a panel that identifies alterations in immune regulators through localized analysis of transcript expression (PanCancer IO 360 Panel). […] These include several immune/inflammatory genes (such as CD2, TLR, CD28, H2-M3, Ly6C1, cytokines, and chemokines) as well as genes that could impact the metastatic potential of the microenvironment (including collagen 11A1 and MM P12). NanoString bioinformatics analysis further identified that these changes could be due to an increase in Cytotoxic T lymphocytes (CTLs) in cSNX1.3-treated samples compared to PTD4 (FIG. 8B). […] Therefore, tumor lysates were prepared and evaluated for apoptosis and a loss of the negative immune checkpoint receptor PDL1 (FIG. 8C). […] These changes could indicate an alteration from an immune-suppressive to an immune-surveilling microenvironment.

[5] = tested on: BT20 cells; test: 2D cell migration into an artificial wound, BT20 cells; assay type: cell-based, human
Protocol: Area migrated was measured with ImageJ.
as §2

[6] = tested on: WAP-TGFα tumors; test: Histology and protein lysate analysis of treated WAP-TGFα tumors; assay type: in vivo, mouse
Excerpt: Mice were bred continuously to induce transgene expression and palpated weekly for tumor formation. […] A. Changes in tumor size from entry into study until end of study are shown for each individual tumor, (*) indicate tumors that entered the study at size greater than 500 mm^3, all other tumors entered the study at ˜100 mm^3. B. a Kaplan-Meier survival curve was generated showing when mice were sacrificed by either reaching tumor burden (2000 mm^3) or the end of the study (p=0.0002). C. Upon sacrifice tumors were harvested and fixed in 10% formalin and embedded in paraffin. Slides were stained with hematoxylin and eosin and imaged at 20×. D. Protein lysates were generated from tumors upon sacrifice and probed for the indicated proteins.
as §3
At the end of the study, mice were sacrificed and tissues were collected and fixed in 10% buffered formalin or homogenized in tissue lysis buffer. Tissues were sectioned and evaluated for changes to tissue morphology in response to peptide treatment (FIG. 3C). […] Representative tumors from the PARP-cleavage positive (cSNX1.3-treated) and negative (cPTD4-treated) are shown (FIG. 3C).
as §4

## CNC(=O)CN1CCC(Oc2cc3c(Nc4cccc(Cl)c4F)ncnc3cc2OC)CC1 [Sapitinib, reference compound]
[1]; BT20, 3 days, MTT assay
  inhibition of cell survival, compared with Sapitinib: inhibited cell survival
[2]
  inhibition of cell survival, compared with Sapitinib: inhibited cell survival
[3]
  impact on normal immortalized cells: more effective at inhibiting cell growth in normal cells than in cancer cells

## YARAAARQARAKNHVIKYLETLLYSQQQLAKYWEAFL [SNX1.3]
[4]
  secretion of IL33: induced
[5]; BT20, 12 hours, ligand for CD44
  soluble hyaluronic acid (HA)-induced migration (CD44): did not block
[5]; BT20, 12 hours, ligand for HER3 and HER4
  neuregulin (NRG1) induced migration: inhibited migration
[5]; BT20, 12 hours, ligand for c-Met receptor
  hepatic growth factor (HGF)-induced migration: inhibited migration
[5]; BT20 on plastic, 12 hours
  EGF induced migration: no migration was observed
[1]; first screen of SNX1-based peptides
  growth of BT20 cells: inhibits the growth
[1]; in less than 24 hours, data not shown
  impact on viability via MTT: no impact on viability
[6]; compared to control mice
  infiltration of cytotoxic T lymphocytes and neutrophils in tumors: increased infiltration
[6]; tumor lysates
  overall PDL1 expression in tumors: decrease
